Patent US10168342B2, “Lipid probes and uses thereof” (THE SCRIPPS RESEARCH INSTITUTE, priority 2015, dated 2019)

Tests used:
[1] = biological target: AEA-DA lipid probe targets in Neuro2a cells (Mus musculus, UniProt Q9QXS1); settings: competitor 25 μM
[2] = biological target: AEA-DA lipid probe targets in Neuro2a cells (Mus musculus, UniProt Q80YV4); settings: competitor 200 μM
recombinant TMEM97 = biological target: T1, recombinant TMEM97 (Homo sapiens, UniProt Q5BJF2); test: In situ gel-based competition of arachidonoyl probe labeling of recombinant TMEM97 in HEK293T cells; type: cell-based; settings: TMEM97-transfected HEK293T cells, probe 5 μM, competitor 25 μM
T1 construct: Full-length cDNAs encoding for the each protein of interest were subcloned into pcDNA3.1 myc-His A; expressed in transfected cells; host or cells: HEK293T
T1 sequence (Q5BJF2 whole entry, species assumed): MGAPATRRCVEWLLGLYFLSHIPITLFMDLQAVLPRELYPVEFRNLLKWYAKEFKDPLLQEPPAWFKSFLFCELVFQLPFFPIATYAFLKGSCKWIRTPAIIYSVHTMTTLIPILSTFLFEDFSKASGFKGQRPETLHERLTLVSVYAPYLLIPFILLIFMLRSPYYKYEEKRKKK
Protocol: Proteomes were diluted to 1.0 mg/mL (total protein concentration) and 50 μL of each proteome was transferred to separate wells in a 96-well plate.
Full-length cDNAs encoding for the each protein of interest were subcloned into pcDNA3.1 myc-His A (Invitrogen) or used directly for transfections if available in a eukaryotic expression vector. HEK293T cells were grown to ˜70% confluence under standard growth conditions before adding the appropriate cDNA [control cells (“mock”) received an equal amount of empty pcDNA3.1 myc-His A vector] and FuGENE 6 or X-tremeGENE HP (Roche) transfection reagent according to the manufacturer's instructions. Cells were incubated for 36-48 hours before labeling in situ or harvesting for in vitro experiments.

[3] = biological target: A-DA lipid probe targets in A549 cells (Homo sapiens, UniProt Q5HYK3); test: In situ competitive SILAC profiling with A-DA probe in (PMA-stimulated) A549 cells; settings: A549 cells, A-DA probe
Sequence of A-DA lipid probe targets in A549 cells (Q5HYK3 43-327): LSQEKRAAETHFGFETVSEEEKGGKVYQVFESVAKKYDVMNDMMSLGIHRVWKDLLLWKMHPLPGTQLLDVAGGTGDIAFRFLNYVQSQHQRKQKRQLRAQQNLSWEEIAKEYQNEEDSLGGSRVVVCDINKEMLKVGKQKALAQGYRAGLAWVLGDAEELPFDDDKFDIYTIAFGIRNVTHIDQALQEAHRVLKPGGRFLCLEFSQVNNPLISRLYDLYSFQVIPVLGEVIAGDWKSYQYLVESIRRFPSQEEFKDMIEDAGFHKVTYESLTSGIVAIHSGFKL

Sequence of AEA-DA lipid probe targets in Neuro2a cells (Mus musculus, UniProt Q80YV4) (Q80YV4 whole entry): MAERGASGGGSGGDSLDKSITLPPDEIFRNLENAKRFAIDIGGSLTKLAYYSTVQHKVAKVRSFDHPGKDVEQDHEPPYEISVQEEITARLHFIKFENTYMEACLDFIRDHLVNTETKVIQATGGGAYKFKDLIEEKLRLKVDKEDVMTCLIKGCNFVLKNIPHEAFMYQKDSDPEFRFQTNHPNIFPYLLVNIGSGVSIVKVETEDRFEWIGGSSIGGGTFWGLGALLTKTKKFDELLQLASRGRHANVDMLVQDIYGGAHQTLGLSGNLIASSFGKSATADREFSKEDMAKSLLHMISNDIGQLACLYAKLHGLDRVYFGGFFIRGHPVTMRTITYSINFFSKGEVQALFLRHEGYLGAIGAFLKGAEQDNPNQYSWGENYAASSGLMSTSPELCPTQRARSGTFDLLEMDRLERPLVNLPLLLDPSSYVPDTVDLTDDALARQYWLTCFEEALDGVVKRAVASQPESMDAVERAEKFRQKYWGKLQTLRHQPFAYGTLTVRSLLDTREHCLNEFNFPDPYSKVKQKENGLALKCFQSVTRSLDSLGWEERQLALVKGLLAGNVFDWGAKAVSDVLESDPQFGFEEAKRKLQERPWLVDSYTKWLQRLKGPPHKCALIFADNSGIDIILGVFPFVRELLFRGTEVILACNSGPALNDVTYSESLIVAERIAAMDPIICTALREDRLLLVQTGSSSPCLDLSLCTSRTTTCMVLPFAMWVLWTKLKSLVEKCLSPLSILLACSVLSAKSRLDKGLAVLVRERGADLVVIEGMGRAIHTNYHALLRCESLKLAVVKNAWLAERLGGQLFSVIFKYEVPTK

Compound: O=C(/C=C/c1cccnc1)NCCCCC1CCN(C(=O)c2ccccc2)CC1 [FK-866, reference compound]
- SILAC ratio, Plec [1]: 2.1

Compound: CCCCC/C=C\C/C=C\C/C=C\C/C=C\CCCC(=O)NCCO [AEA, anandamide, reference compound]
- SILAC ratio Pank4 [2]: 1.6

Compound: C=CCN(C)CCCCCCOc1ccc(C(=O)c2ccc(Br)cc2)c(F)c1 [Ro 48-8071, reference compound]
- competition of arachidonoyl probe labeling of recombinant TMEM97 (recombinant TMEM97): competition was observed

Compound: C=CCN(C)CCCCCCOc1ccc(C(=O)c2ccc(Br)cc2)c(F)c1 [Ro488071]
- SILAC ratio, COQ5 (Q5HYK3) ([3]; competitor 5 μM): 2.0
- SILAC ratio, COQ5 (Q5HYK3) ([3]; competitor 50 μM): 3.4
